Consider eight compounds from patent publication US7727980B2, “Tricyclic androgen receptor modulator compounds and methods” (priority 2001, dated 2010).

In test [1] the target is T1, human AR (Homo sapiens, UniProt P10275).
T1 sequence (P10275 1-920): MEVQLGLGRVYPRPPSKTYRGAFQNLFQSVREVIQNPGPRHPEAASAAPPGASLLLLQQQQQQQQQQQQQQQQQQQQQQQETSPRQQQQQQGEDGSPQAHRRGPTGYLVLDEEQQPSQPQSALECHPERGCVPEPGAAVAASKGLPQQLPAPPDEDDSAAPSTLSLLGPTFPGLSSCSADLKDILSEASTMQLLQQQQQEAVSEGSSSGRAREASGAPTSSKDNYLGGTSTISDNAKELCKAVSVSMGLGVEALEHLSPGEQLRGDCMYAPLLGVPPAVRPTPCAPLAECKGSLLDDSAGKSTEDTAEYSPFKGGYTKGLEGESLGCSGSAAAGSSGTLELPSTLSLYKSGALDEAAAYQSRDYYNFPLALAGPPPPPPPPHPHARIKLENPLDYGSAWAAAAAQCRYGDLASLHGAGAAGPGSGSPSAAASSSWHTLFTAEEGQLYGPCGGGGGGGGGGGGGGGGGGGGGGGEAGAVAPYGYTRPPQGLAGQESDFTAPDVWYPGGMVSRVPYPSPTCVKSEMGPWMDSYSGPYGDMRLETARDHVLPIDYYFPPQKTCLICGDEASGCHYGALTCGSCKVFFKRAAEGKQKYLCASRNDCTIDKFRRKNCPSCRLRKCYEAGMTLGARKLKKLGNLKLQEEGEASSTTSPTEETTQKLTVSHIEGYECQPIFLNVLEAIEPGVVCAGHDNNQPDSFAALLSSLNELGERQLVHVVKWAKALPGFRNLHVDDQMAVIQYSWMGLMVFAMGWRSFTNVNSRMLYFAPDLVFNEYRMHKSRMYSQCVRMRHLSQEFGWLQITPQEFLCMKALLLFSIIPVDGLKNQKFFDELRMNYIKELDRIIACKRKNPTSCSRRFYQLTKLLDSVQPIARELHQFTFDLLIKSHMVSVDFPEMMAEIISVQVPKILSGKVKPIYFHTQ
The test is described as follows: Co-transfection assay, AR agonist activity, CV-1 cells. The note with it: for EC50: AR Agonist CV-1 Cells Potency (nM), agonist potency or EC50; for AR Agonist CV-1 Cells Efficacy (%): percent maximal response relative to reference agonist DHT. Also on record: expressed in transfected cells; host or cells: CV-1 cells (African green monkey kidney fibroblasts), transient transfection with pRShAR. The class given is cell-based. An excerpt: (§1) The co-transfection assay provides a method for identifying functional agonists and partial agonists which mimic, or antagonists which inhibit, the effect of native hormones and quantifying their activity for responsive IR proteins. In this regard, the co-transfection assay mimics an in vivo system in the laboratory. Importantly, activity in the co-transfection assay correlates very well with known in vivo activity, such that the co-transfection assay functions as a qualitative and quantitative predictor of a tested compounds in vivo pharmacology. See, e.g., T. Berger et al. 41 J. Steroid Biochem. Molec.
(§2) In the co-transfection assay, a cloned cDNA for an IR (e.g., human PR, AR or GR) under the control of a constitutive promoter (e.g., the SV 40 promoter) is introduced by transfection (a procedure to induce cells to take up foreign genes) into a background cell substantially devoid of endogenous IRs. This introduced gene directs the recipient cells to make the IR protein of interest. A second gene is also introduced (co-transfected) into the same cells in conjunction with the IR gene. This second gene, comprising the cDNA for a reporter protein, such as firefly luciferase (LUC), controlled by an appropriate hormone responsive promoter containing a hormone response element (HRE). This reporter plasmid functions as a reporter for the transcription-modulating activity of the target IR. Thus, the reporter acts as a surrogate for the products (mRNA then protein) normally expressed by a gene under control of the target receptor and its native hormone.
(§3) The co-transfection assay can detect small molecule agonists or antagonists of target IRs. Exposing the transfected cells to an agonist ligand compound increases reporter activity in the transfected cells. This activity can be conveniently measured, e.g., by increasing luciferase production, which reflects compound-dependent, IR-mediated increases in reporter transcription. […] To detect antagonists, the co-transfection assay is carried out in the presence of a constant concentration of an agonist to the target IR (e.g., progesterone for PR) known to induce a defined reporter signal. Increasing concentrations of a suspected antagonist will decrease the reporter signal (e.g., luciferase production). The co-transfection assay is therefore useful to detect both agonists and antagonists of specific IRs. Furthermore, it determines not only whether a compound interacts with a particular IR, but whether this interaction mimics (agonizes) or blocks (antagonizes) the effects of the native regulatory molecules on target gene expression, as well as the specificity and strength of this interaction.
(§4) CV-1 cells (African green monkey kidney fibroblasts) were cultured in the presence of Dulbecco's Modified Eagle Medium (DMEM) supplemented with 10% charcoal resin-stripped fetal bovine serum then transferred to 96-well microtiter plates one day prior to transfection.
(§5) The reporter plasmid, MTV-LUC, contains the cDNA for firefly luciferase (LUC) under control of the mouse mammary tumor virus (MTV) long terminal repeat, a conditional promoter containing an androgen response element. See e.g., Berger et al. supra. In addition, pRS-β-Gal, coding for constitutive expression of E. coli β-galactosidase (β-Gal), was included as an internal control for evaluation of transfection efficiency and compound toxicity.
(§6) Six hours after transfection, media was removed and the cells were washed with phosphate-buffered saline (PBS). […] Three to four replicates were used for each sample. Transfections and subsequent procedures were performed on a Biomek 1000 automated laboratory work station.
(§7) After 40 hours, the cells were washed with PBS, lysed with a Triton X-100-based buffer and assayed for LUC and β-Gal activities using a luminometer or spectrophotometer, respectively. For each replicate, the normalized response (NR) was calculated as: LUC response/β-Gal rate • where β-Gal rate=β-Gal·1×10^−5/β-Gal incubation time.

Test [2] deals with T1, human AR. The test is described as follows: AR whole cell competitive binding assay (3H-DHT), transfected COS-1 cells. Also on record: expressed in transfected cells; transient transfection with pRShAR. The note with it: AR Binding Ki (nM), COS-1 cells, 1 nM 3H-DHT, Cheng-Prusoff from IC50. As to the method: AR Binding: For the whole cell binding assay, COS-1 cells in 96-well microtiter plates containing DMEM-10% FBS were transfected as described above with the following plasmid DNA: pRShAR (2 ng/well), pRS-β-Gal (50 ng/well) and pGEM (48 ng/well). Six hours after transfection, media was removed, the cells were washed with PBS and fresh media was added. The next day, the media was changed to DMEM-serum free to remove any endogenous ligand that might be complexed with the receptor in the cells.
Three replicates were used for each sample. […] The remaining media was removed, the cells were washed three times with PBS to remove unbound ligand and cells were lysed with a Triton X-100-based buffer.
For the saturation analyses, the difference between the total binding and the nonspecific binding, normalized by the β-Gal rate, was defined as specific binding. […] The Ki values were determined by application of the Cheng-Prusoff equation to the IC50 values, where: […]
After correcting for non-specific binding, IC50 values were determined. […] The IC50 value was determined graphically from a log-logit plot of the data. The Ki values were determined by application of the Cheng-Prusoff equation to the IC50 values, the labeled ligand concentration and the Kd of the labeled ligand.

Test [3] addresses T1, human AR. As to the kind of experiment: Co-transfection assay, AR antagonist activity in presence of DHT, CV-1 cells. Further details: expressed in transfected cells; host or cells: CV-1 cells (African green monkey kidney fibroblasts), transient transfection with pRShAR. The class given is cell-based. As to conditions: CV-1 cells; for IC50: AR Antagonist CV-1 Cells Potency (nM), antagonist potency or IC50, DHT at its EC50 concentration; for AR Antagonist CV-1 Cells Efficacy (%): percent maximal inhibition, DHT at its EC50 concentration.
Text: as §1, §2, §3, §4, §5, §6, §7

As to `CCN1c2cc3c(C(F)(F)F)cc(=O)[nH]c3cc2C2CCCC21` (racemic) [Compound 122, (±)-6,6a 7,8,9,9a(cis)-Hexahydro-6-ethyl-4-trifluoromethylcyclopentano-[i]pyrrolo[2,3-g]quinolin-2(1H)-one], on human AR [1], the midpoint of the response, the EC50, lay at 34 nM and the “AR Agonist CV-1 Cells Efficacy (%)” value is listed as 59%. For the same compound, affinity at human AR [2] was put at a Ki of 21 nM. At human AR [3], the IC50 (as a rule, the concentration that gives 50% inhibition) was over 10000 nM; the “AR Antagonist CV-1 Cells Efficacy (%)” value is “na (na = not active (i.e. efficacy of <20 and potency of >10,000))”.

Take `CC1c2c(ccc3[nH]c(=O)cc(C(F)(F)F)c23)N(CC(F)(F)F)C1C` (racemic) [Compound 123, (±)-5,6-Dihydro-5,6-cis-dimethyl-7-(2,2,2-trifluoroethyl)-4-trifluoromethyl-7H-pyrrolo[3,2-f]quinolin-2(1H)-one]: at human AR [1], a half-maximal response (EC50) required 1.4 nM and the “AR Agonist CV-1 Cells Efficacy (%)” value is recorded as 104%. The Ki (commonly a dissociation constant, usually derived from enzyme kinetics or from competition with a known ligand) on human AR [2] was 14 nM. Moreover, at human AR [3], the IC50 is over 10000 nM; the “AR Antagonist CV-1 Cells Efficacy (%)” value was “na (na = not active (i.e. efficacy of <20 and potency of >10,000))”.

Consider `CCCN1c2ccc3[nH]c(=O)cc(C(F)(F)F)c3c2C2CCCC21` (racemic) [Compound 125, (±)-4c,5,6,7,7a(cis),8-Hexahydro-8-propyl-4-trifluoromethylcyclopentano-[g]pyrrolo-[3,2-f]quinolin-2(1H)-one], for which, at human AR [1], the EC50 (usually the concentration needed to bring the measured effect to its halfway point) was determined as 38 nM and the “AR Agonist CV-1 Cells Efficacy (%)” value worked out at 121%. Further, the Ki at human AR [2] was determined as 1.3 nM. For the same compound, on human AR [3], the IC50 was over 10000 nM; the “AR Antagonist CV-1 Cells Efficacy (%)” value was “na (na = not active (i.e. efficacy of <20 and potency of >10,000))”.

Take `O=c1cc(C(F)(F)F)c2c3c(ccc2[nH]1)N(Cc1ccoc1)C1CCCC31` (racemic) [Compound 126, (±)-4c,5,6,7,7a(cis),8-Hexahydro-8-(3-furanylmethyl)-4-trifluoromethyl-cyclopentano[g]pyrrolo[3,2-f]quinolin-2(1H)-one]: the “AR Agonist CV-1 Cells Efficacy (%)” value on human AR [1] is 53%. In addition, the Ki at human AR [2] was 2.3 nM. At human AR [3], the concentration for half-maximal inhibition (IC50) is over 10000 nM; the “AR Antagonist CV-1 Cells Efficacy (%)” value is “na (na = not active (i.e. efficacy of <20 and potency of >10,000))”.

Take `O=c1cc(C(F)(F)F)c2c3c(ccc2[nH]1)N(Cc1ccsc1)C1CCCC31` (racemic) [Compound 127, (±)-4c,5,6,7,7a(cis),8-Hexahydro-8-(3-thiophenemethyl)-4-trifluoromethyl-cyclopentano[g]pyrrolo[3,2-f]quinolin-2(1H)-one]: at human AR [1], the EC50 is 25 nM and the “AR Agonist CV-1 Cells Efficacy (%)” value came to 66%. The same compound displayed a Ki on human AR [2] of 6.3 nM. For the same compound, at human AR [3], the IC50 is over 10000 nM; the “AR Antagonist CV-1 Cells Efficacy (%)” value is “na (na = not active (i.e. efficacy of <20 and potency of >10,000))”.

In the case of `O=c1cc(C(F)(F)F)c2c3c(ccc2[nH]1)N(CC(F)(F)Cl)C1CCCC31` (racemic) [Compound 129, (±)-4c,5,6,7,7a(cis),8-Hexahydro-8-(2,2,2-chlorodifluoroethyl)-4-trifluoromethylcyclopentano[g]pyrrolo[3,2-f]quinolin-2(1H)-one], on human AR [1], the EC50 was found to be 1.6 nM and the “AR Agonist CV-1 Cells Efficacy (%)” value stood at 79%. The compound also came in with a Ki at human AR [2] of 3.2 nM. For the same compound, at human AR [3], the IC50 is over 10000 nM; the “AR Antagonist CV-1 Cells Efficacy (%)” value is “na (na = not active (i.e. efficacy of <20 and potency of >10,000))”.

`O=c1cc(C(F)(F)F)c2c3c(ccc2[nH]1)N(CC(F)(F)F)C1CCCCC31` (racemic) [Compound 132, (±)-4c,5,6,7,8,8a(cis),9-Heptahydro-9-(2,2,2-trifluoroethyl)-4-trifluoro-methyl-9H-cyclohexano[g]pyrrolo[3,2-f]quinolin-2(1H)-one]: at human AR [1], the midpoint of the response, the EC50, lay at 4.8 nM and the “AR Agonist CV-1 Cells Efficacy (%)” value came to 70%. At human AR [2], this compound gave a Ki of 21 nM. In addition, on human AR [3], the IC50 was over 10000 nM; the “AR Antagonist CV-1 Cells Efficacy (%)” value was “na (na = not active (i.e. efficacy of <20 and potency of >10,000))”.

For the compound `CCC1C(C)c2c(ccc3[nH]c(=O)cc(C(F)(F)F)c23)N1CC(F)(F)F` (racemic) [Compound 134, (±)-5,6-cis-Dihydro-6-ethyl-5-methyl-7-(2,2,2-trifluoroethyl)-4-trifluoromethyl-7H-pyrrolo[3,2-f]quinolin-2(1H)-one], at human AR [1], the EC50 came out at 4.2 nM and the “AR Agonist CV-1 Cells Efficacy (%)” value worked out at 70%. For the same compound, the Ki on human AR [2] turned out to be 6.8 nM. Moreover, on human AR [3], the IC50 was over 10000 nM; the “AR Antagonist CV-1 Cells Efficacy (%)” value is “na (na = not active (i.e. efficacy of <20 and potency of >10,000))”.
